Consider 24 compounds from US6855710B2, “Substituted indolines with an inhibitory effect on various kinases and complexes of CDKs” (Boehringer Ingelheim Pharma KG, priority 1998, dated 2005).

Consider `CN(CC(=O)O)C(=O)c1cccc(N/C(=C2\C(=O)Nc3ccccc32)c2ccccc2)c1` [Example 26, (Z)-3-{1-[3-(N-carboxymethyl-N-methyl-aminocarbonyl)-phenyl-amino]-1-phenyl-methylidene}-2-indolinone], for which the melting point (in general, the temperature of the solid-liquid transition) was 218 to 220 °C. Next, `Cl.NCCc1ccc(N/C(=C2\C(=O)Nc3ccc([N+](=O)[O-])cc32)c2ccccc2)cc1`: 335 to 340 °C (dec.); `O=C(CN1CCOCC1)Nc1ccc(N/C(=C2\C(=O)Nc3ccccc32)c2ccccc2)cc1` [Example 43, (Z)-3-[1-(4-morpholinomethylcarbonylamino-phenylamino)-1-phenyl-methylidene]-2-indolinone]: 246 to 248 °C; `CN(C)C(=O)CN(c1cccc(N/C(=C2\C(=O)Nc3ccccc32)c2ccccc2)c1)S(C)(=O)=O` [Example 321, (Z)-3-{1-[3-(N-dimethylaminocarbonylmethyl-N-methylsulphonyl-amino)-phenylamino]-1-phenyl-methylidene}-2-indolinone]: 213 to 216 °C. Turning to `O=C1Nc2ccccc2/C1=C(/Nc1ccc(C(=O)O)cc1)c1ccccc1` [Example 17, (Z)-3-[1-(4-carboxy-phenylamino)-1-phenyl-methylidene]-2-indolinone], the melting point fell in the range of 312 to 316 °C. The result for `CNC(=O)CN(c1cccc(N/C(=C2\C(=O)Nc3ccccc32)c2ccc(CN)cc2)c1)S(C)(=O)=O` [Example 418, (Z)-3-{1-[3-(N-methylaminocarbonylmethyl-N-methylsulphonyl-amino)-phenylamino]-1-(4-aminomethyl-phenyl)-methylidene}-2-indolinone] reads 164 °C. Next, `Cc1ccc(/C(Nc2ccc(CN(C)C)cc2)=C2/C(=O)Nc3ccc([N+](=O)[O-])cc32)cc1` [Example 212, (Z)-3-[1-(4-dimethylaminomethyl-phenylamino)-1-(p-tolyl)-methylidene]-5-nitro-2-indolinone]: 274 to 276 °C; `CN(Cc1ccccc1)Cc1ccc(N/C(=C2\C(=O)Nc3ccc([N+](=O)[O-])cc32)c2ccc(Cn3ccnc3)cc2)cc1` [Example 440, (Z)-3-{1-[4-(N-benzyl-N-methyl-aminomethyl)-phenylamino]-1-[4-(imidazol-1-ylmethyl)-phenyl]-methylidene}-5-nitro-2-indolinone]: 195 to 198 °C; `CN(C)CC(=O)NCc1ccc(N/C(=C2\C(=O)Nc3ccc([N+](=O)[O-])cc32)c2ccccc2)cc1` [Example 142, (Z)-3-[1-(4-dimethylaminomethylcarbonylaminomethyl-phenylamino)-1-phenyl-methylidene]-5-nitro-2-indolinone]: 272 to 273 °C.

`Cl.NC(Cc1ccc(N/C(=C2\C(=O)Nc3ccc([N+](=O)[O-])cc32)c2ccccc2)cc1)C(=O)O` (stereo not drawn): the melting point was 225 °C (dec.). The result for `O=C(O)Cc1cccc(N/C(=C2\C(=O)Nc3ccccc32)c2ccccc2)c1` [Example 12, (Z)-3-[1-(3-carboxymethyl-phenylamino)-1-phenyl-methylidene]-2-indolinone] reads 268 to 270 °C; that for `COCCNCc1ccc(N/C(=C2\C(=O)Nc3ccc([N+](=O)[O-])cc32)c2ccccc2)cc1` [Example 174, (Z)-3-{1-[4-(2-methoxyethylaminomethyl)-phenylamino]-1-phenyl-methylidene}-5-nitro-2-indolinone], 184 to 185 °C; that for `CN(C)C(=O)CNS(=O)(=O)c1ccc(N/C(=C2\C(=O)Nc3ccc([N+](=O)[O-])cc32)c2ccccc2)cc1` [Example 412, (Z)-3-{1-[4-(dimethylaminocarbonylmethylaminosulphonyl)-phenylamino]-1-phenyl-methylidene}-5-nitro-2-indolinone], 281 to 283 °C. Compound `CCOC(=O)C1CCN(Cc2ccc(N/C(=C3\C(=O)Nc4ccc([N+](=O)[O-])cc43)c3ccccc3)cc2)CC1` [Example 176, (Z)-3-{1-[4-(4-ethoxycarbonyl-piperidinomethyl)-phenylamino]-1-phenyl-methylidene}-5-nitro-2-indolinone] came in with a melting point of 194 °C. The result for `CC(C)(C)OC(=O)NCC(=O)NCc1ccc(N/C(=C2\C(=O)Nc3ccccc32)c2ccccc2)cc1` [Example 57, (Z)-3-[1-(4-tert.butoxycarbonylaminomethylcarbonylaminomethyl-phenylamino)-1-phenyl-methylidene}-2-indolinone] reads 218 to 220 °C.

In turn, `CN(C)CCN(C=O)c1ccc(N/C(=C2\C(=O)Nc3ccccc32)c2ccccc2)cc1` [Example 339, (Z)-3-{1-[4-(N-(2-dimethylaminoethyl)-N-formyl-amino)-phenylamino]-1-phenyl-methylidene}-2-indolinone] gave a melting point of 246 to 248 °C. Next, `CN(C)CCCOc1ccc(N/C(=C2\C(=O)Nc3ccccc32)c2ccccc2)cc1` [Example 286, (Z)-3-{1-[4-(3-dimethylaminopropyloxy)-phenylamino]-1-phenyl-methylidene}-2-indolinone]: 215 to 217 °C; `CN(Cc1ccc(N/C(=C2\C(=O)Nc3ccc([N+](=O)[O-])cc32)c2ccccc2)cc1)c1ccccc1` [Example 234, (Z)-3-{1-[4-(N-methyl-N-phenyl-aminomethyl)-phenylamino]-1-phenyl-methylidene}-5-nitro-2-indolinone]: 228 to 230 °C. Next, `NCc1cccc(N/C(=C2\C(=O)Nc3ccccc32)c2ccccc2)c1` [Example 68, (Z)-3-[1-(3-aminomethyl-phenylamino)-1-phenyl-methylidene]-2-indolinone]: 175 to 185 °C; `COCC(=O)Nc1ccc(N/C(=C2\C(=O)Nc3ccccc32)c2ccccc2)cc1` [Example 40, (Z)-3-[1-(4-methoxymethylcarbonylamino-phenylamino)-1-phenyl-methylidene]-2-indolinone]: 238 to 240 °C; `Cl.Cl.O=C1Nc2ccc([N+](=O)[O-])cc2/C1=C(/Nc1ccc(CN2CCNCC2)cc1)c1ccccc1`: above 370 °C. Turning to `CC(=O)N1CCN(Cc2ccc(N/C(=C3\C(=O)Nc4ccc([N+](=O)[O-])cc43)c3ccccc3)cc2)CC1` [Example 246, (Z)-3-{1-[4-(4-acetylpiperazin-1-ylmethyl)-phenylamino]-1-phenyl-methylidene}-5-nitro-2-indolinone], the melting point fell in the range of 275 to 277 °C.

`O=C1Nc2ccc([N+](=O)[O-])cc2/C1=C(/Nc1ccc(CNC2CC2)cc1)c1ccccc1` [Example 274, (Z)-3-{1-[4-(cyclopropylaminomethyl)-phenylamino]-1-phenyl-methylidene}-5-nitro-2-indolinone]: the melting point was 220 to 221 °C (dec.).

Compound `CN(CCN1CCOCC1)CC(=O)N(C)c1ccc(N/C(=C2\C(=O)Nc3ccccc32)c2ccccc2)cc1` [Example 374, (Z)-3-{1-[4-(N—(N-(2-morpholinoethyl)-N-methyl-aminomethyl-carbonyl)-N-methylamino)-phenylamino]-1-phenyl-methylidene}-2-indolinone] gave a melting point of 116 to 118 °C.
